Test results taken from patent US20250270251A1, “PROCESS FOR THE PREPARATION OF […] HAVING A DEFINITE PARTICLE SIZE DISTRIBUTION AND A IRREGULAR HEXAGON PLATES CRYSTAL HABIT” (F.I.S. - FABBRICA ITALIANA SINTETICI S.P.A., priority 2020, published 2025).

Legend:
Type in all cases: physicochemical
[1] = Particle size distribution (PSD) with a Malvern Mastersizer 3000
Method: Particle size distribution (PSD): In particular, particle size distribution was determined with a Malvern Mastersizer 3000, and the other parameters used are reported in table below: […]

[2] = Microscopy analysis (SEM) for identification of crystal habit and size; details: crystallized with a C2-C5 alkyl alcohol, examples 2 to 9
Method: The mean square weight means is determined by chord-length distribution analysis of Trenbolone Acetate of formula (I), in particular, was through by scanning electron microscopy (SEM).
Microscopy analysis: the solid of Trenbolone Acetate (I) was analysed by microscopy for identification of crystal habits.
Microscope was recorded with a Zeiss Evo MA10 scanning electron microscope. A sample of powder has been gold spattered and observed by SEM at different magnification, micrographs have been collected at same conditions and magnification (20 kV, HDBSD, Variable Pressure). All the samples have been observed after same treatment and same time after preparation.

[3] = DSC comparative study of crystal habits; details: irregular hexagon plates versus non-irregular hexagon plates crystals; from DSC onset and peak
Method: DSC analysis was recorded with a Mettler DSC822e. A sample of compound was charged into a 40 μL aluminium crucible with a pinhole lid and was heated, under nitrogen (50 mL/min), at 10° C./min from 30 to 300° C.
DSC testing was performed in a sealed medium pressure stainless steel crucible. All the testing was performed by heating the sample from 30° C. at a rate of 10° C./minute up to a maximum temperature of 300° C.

[4] = Example 12, crystallization from isopropanol, seed D10 4-12, D50 12-29, D90 <76 μm
[5] = Example 13, recrystallization from IPA, seed D10 2-5, D50 10-20, D90 25-51 μm

CC(=O)O[C@H]1CC[C@H]2[C@@H]3CCC4=CC(=O)CCC4=C3C=C[C@]12C [Compound (I), 17beta-acetoxy-estra-4,9,11-triene-3-one]
PSD D50 ([1]; Example 2, crystallization from isopropanol, seeded at 20-25 °C): 67-130 μm
PSD D10 [1, 4]: 15-40 μm
PSD D50 [1, 4]: 67-130 μm
PSD D90 [1, 4]: 350 μm
PSD D10 [1, 5]: 15-40 μm
PSD D50 [1, 5]: 67-130 μm
PSD D90 [1, 5]: 300 μm
size range of thin irregular hexagon plates [2]: 20-200 micron
thermodynamic stability of the crystal habit [3]: thermodynamically more stable
